Like-named read-outs stand apart in the source and are kept apart here.
Tests used:
[1] = cited from earlier work; for LD50: modelling table; for Toxicity: toxicity grade by LD50, trailing figure = number of pesticides in group
[2] = biological target: T1, human serum albumin (HSA) (Homo sapiens, UniProt P02768); test: Fluorescence emission spectrum (quenching) of HSA with carbamate pesticides; format: binding; details: for R (binding distance): Förster energy transfer; for ΔH^0 / ΔS^0: Van't Hoff, 296-310 K
Procedure: the mixed solution to be tested was preheated at […] for 3 minutes, and the emission spectrum of HSA with carbamate pesticides was measured at 300-500 nm . The excitation wavelength was set at 280 nm , and the slit width for both excitation and emission was 15 nm; the HSA concentration was kept constant at 5×10^−7 M, and the pesticide concentration was (0-105)×10^−7 M.
The internal filtering effect of fluorescence signal was corrected according to the following formula: Fcor=Fobsexp[(Aex+Aem)/2] (1);
in this formula, Fcor and Fobs represent corrected fluorescence signal and observed fluorescence signal, respectively, and Aex and Aem represent absorbance of the mixed solution to be tested at excitation wavelength and emission wavelengths, respectively; the quenching constant, number of binding sites, binding constant, free energy and binding distance of different drugs were obtained by fluorescence emission spectra, and a BP neural network model was obtained. Specifically, they were obtained as follows:
There is a linear relationship between F0/F and [Q] to distinguish whether it is static quenching or dynamic quenching. The fluorescence quenching data are analyzed by Stern-Volmer equation to clarify the quenching mechanism: F0/F=1+KSV[Q]=1+Kqτ0[Q] (2);
in the formula, F0 and F are fluorescence signals […] quencher, respectively. Ksv is Stern-Volmer quenching constant; Kq is a quenching rate constant of biomolecules; τ0 is the average lifetime of biomolecules without quencher (about 10^−8 s); [Q] is the concentration of quencher.
The maximum dynamic quenching rate constant of all kinds of quenchers on polymers was 2.0×10^10 L·mol^−1·s^−1. Static quenching and dynamic quenching could be judged according to this value. If K^q was greater than 2.0×10^10 L·mol^−1·s^−1, it belonged to static quenching. Otherwise, it belonged to dynamic quenching.
In this part, the binding sites and binding constants between carbamate pesticides and HSA were calculated. The following formula was used to calculate the number of binding sites (n) and the binding constant (Ka) of carbamate pesticides and HSA: log[(F0−F)/F]=log Ka+nlog[Q] (3);
The interactions between biological molecules and drug molecules were weak intermolecular interactions, including hydrogen bonds, van der Waals forces, electrostatic forces and hydrophobic interactions. By using Van't Hoff equation, the thermodynamic constants of drug-protein interaction were obtained, and the main types of drug-protein interaction were judged according to the changes of binding constants under different conditions. LnK=−ΔH^0/RT+ΔS^0/R (4); ΔG^0=ΔH^0−TΔS^0 (5);
There is a relationship among energy transfer efficiency E, distance r between energy donor and energy receptor and energy transfer distance R0. E=1−F/F0=R0^6/(R0^6+r^6) (6);
E represents the transfer efficiency between donor and receptor, r is the average distance between donor and receptor, and R0 is the critical distance when the transfer efficiency is 50%. R0^6=8.79×10^−K^2N^−4φJ (7)
K^2 is the orientation related to the geometry of donor and receptor of dipole. For random orientation in fluid, K^2=2/3; N is the average refractive index of the medium in the wavelength range with obvious spectral overlap, and the refractive index of water and organic matter is 1.336; φ is the quantum yield of donor, and the quantum yield of tryptophan in HSA is about 0.118; J represents the influence of spectral overlap between the emission spectrum of the donor and the absorption spectrum of the receptor, and can be calculated by the following formula: j=ΣF(λ)ϵ(λ)λ^4Δλ/ΣF(λ) Δλ (8);
F(λ) is the corrected fluorescence signal of the donor in the wavelength range from λ to (λ+Δλ), while ϵ(λ) is the extinction coefficient of the receptor at λ.

[3] = biological target: T1, human serum albumin (HSA); test: Circular dichroism spectrum, secondary structure (α-helix content) of HSA; details: HSA 2×10^−6 M
Procedure: the mixed solution to be tested was preheated at […] for 2-5 minutes, and the CD spectrum of HSA was recorded in the wavelength range of 200-500 nm . The concentration of HSA was kept at 2×10^−6 M, and the pesticide was (0-20)×10^−6 m. Firstly, HSA was measured, and then the ratio of HSA to pesticides needed to be determined specifically, which was preliminarily determined according to the ratio of 1:1, 1:2 and 1:3.
According to the following equation, the result of CD spectrum was usually expressed as the mean residue ellipticity (MRE), and the unit was deg·cm^2·dmol^−1. MRE=ObservedCD(mdeg)/(10Cpnl) (9);
in which Cp is the molar concentration of protein, n is the number (585) of amino acid residues, and 1 is the path length (1 mm). The α helicity of free and bound HSA is calculated from MRE values using the following formula: α−Helix(%)=[(−MRE208−4000)×100]/(33000-4000) (10)
in which the MRE208 is the MRE value observed at 208 nm , 4000 is the MRE value of random coil conformation at 208 nm , and […] is the MRE value of pure α helix at 208 nm .

[4] = 37°, modelling table, read-out: Ka (37°) (converted)
[5] = 296 K, test-set pesticides (Table 4)
[6] = 303 K, test-set pesticides (Table 4)
[7] = 310 K, test-set pesticides (Table 4)

T1 sequence (P02768 25-609): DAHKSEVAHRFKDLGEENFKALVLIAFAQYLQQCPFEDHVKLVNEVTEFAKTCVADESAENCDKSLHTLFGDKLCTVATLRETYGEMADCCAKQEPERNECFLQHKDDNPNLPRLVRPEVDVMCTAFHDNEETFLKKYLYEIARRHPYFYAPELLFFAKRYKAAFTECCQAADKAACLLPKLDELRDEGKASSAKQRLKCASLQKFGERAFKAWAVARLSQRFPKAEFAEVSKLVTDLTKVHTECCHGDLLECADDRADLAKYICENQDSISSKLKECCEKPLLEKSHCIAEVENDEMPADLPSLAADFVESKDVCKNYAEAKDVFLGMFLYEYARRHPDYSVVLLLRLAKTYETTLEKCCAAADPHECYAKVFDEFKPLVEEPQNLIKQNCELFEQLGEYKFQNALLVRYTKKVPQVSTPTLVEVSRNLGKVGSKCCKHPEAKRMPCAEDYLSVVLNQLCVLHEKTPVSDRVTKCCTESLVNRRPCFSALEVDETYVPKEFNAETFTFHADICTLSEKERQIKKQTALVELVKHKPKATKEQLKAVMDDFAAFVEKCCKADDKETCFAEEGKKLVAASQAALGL

## CNC(=O)O/N=C/C(C)(C)SC [Aldicarb, aldicarb]
[1]; Table 5
  Actual LD50: 0.5 mg/kg
[1]; Table 6
  Actual LD50: 0.5 mg/kg
[1]
  LD50: 0.5 mg/kg
  Toxicity: Highly
[2]; 37°, modelling table
  Ksv (37°): 72295.50723
  ΔG(37°): −24.42
[2]; [4]
  Kd: 77.3 µM
[2]; 296 K (Table 4)
  n: 0.823 ± 0.002
  ΔG^0: -5.321 kcal/mol
[2]; 296 K (Table 4), read-out: Ka
  Kd: 119 µM
[2]; [5]
  Ksv: 6.498 ± 0.153 10^4 M−1
[2]; 303 K (Table 4)
  n: 0.837 ± 0.002
  ΔG^0: -5.5786 kcal/mol
[2]; 303 K (Table 4), read-out: Ka
  Kd: 93.5 µM
[2]; [6]
  Ksv: 6.999 ± 0.079 10^4 M−1
[2]; 310 K (Table 4)
  n: 0.851 ± 0.002
  r: 2.623
  ΔG^0: -5.8363 kcal/mol
[2]; [7]
  Ksv: 7.230 ± 0.167 10^4 M−1
[2]; modelling table
  Binding distance/r: 2.623
  Number of binding sites/n: 0.8508

## CNC(=O)O/N=C/C(C)(C)S(C)(=O)=O [Aldicarb-sulfone, aldicarb sulfone]
[2]; 37°, modelling table
  Ksv (37°): 39842.68547
  ΔG(37°): −17.29
[2]; 296 K (Table 4)
  n: 0.582 ± 0.008
  ΔG^0: -3.2622 kcal/mol
[2]; [5]
  Ksv: 2.797 ± 0.157 10^4 M−1
[2]; 303 K (Table 4)
  n: 0.624 ± 0.003
  ΔG^0: -3.6977 kcal/mol
[2]; [6]
  Ksv: 3.379 ± 0.129 10^4 M−1
[2]; 310 K (Table 4)
  n: 0.654 ± 0.010
  r: 2.376
  ΔG^0: -4.1334 kcal/mol
[2]; [7]
  Ksv: 3.984 ± 0.197 10^4 M−1
[2]; Ka (37°), 37°, modelling table
  Kd: 1210 µM
[2]; Ka, 296 K (Table 4)
  Kd: 3860 µM
[2]; Ka, 303 K (Table 4)
  Kd: 2200 µM
[2]; modelling table
  Number of binding sites/n: 0.6544

## CNC(=O)Oc1ccc(N(C)C)c(C)c1 [Aminocarb, aminocarb]
[1]
  LD50: 30 mg/kg
  Toxicity: Highly
[2]; 37°, modelling table
  Ksv (37°): 39050.24214
  ΔG(37°): −18.36
[2]; [4]
  Kd: 786 µM
[2]; 296 K
  ΔG^0: -3.7173 kcal/mol
[2]; 296 K, pH 7.4
  Kq: 3.151 ± 0.089 10^12 M^−1s^−1
  Ksv: 3.151 ± 0.089 10^4 M^−1
  n (number of binding sites): 0.649 ± 0.005
[2]; 296 K, pH 7.4, read-out: Ka (binding constant)
  Kd: 1760 µM
[2]; 303 K
  ΔG^0: -4.0531 kcal/mol
[2]; 303 K, pH 7.4
  Kq: 3.409 ± 0.059 10^12 M^−1s^−1
  Ksv: 3.409 ± 0.059 10^4 M^−1
  n (number of binding sites): 0.669 ± 0.006
[2]; 303 K, pH 7.4, read-out: Ka (binding constant)
  Kd: 1250 µM
[2]; 310 K
  ΔG^0: -4.3891 kcal/mol
  R (binding distance): 2.215 nm
[2]; 310 K, pH 7.4
  Kq: 3.905 ± 0.179 10^12 M^−1s^−1
  Ksv: 3.905 ± 0.179 10^4 M^−1
  n (number of binding sites): 0.699 ± 0.003
[2]; 310 K, pH 7.4, read-out: Ka (binding constant)
  Kd: 786 µM
[2]; 310 K, titration of pesticide
  fluorescence of HSA quenched by pesticide: quenched
[2]
  ΔH^0: 10.487 kcal/mol
  ΔS^0: 200.780 J · mol^−1 · K^−1
[2]; modelling table
  Binding distance/r: 2.215
  Number of binding sites/n: 0.6985
[3]; 5:1 (Pesticide:HSA)
  α-helix contents: 49.862%
[3]; 10:1 (Pesticide:HSA)
  α-helix contents: 49.082%

## CCC(C)c1ccccc1OC(=O)NC (stereo not shown) [Fenobucarb, fenobucarb]
[1]; Table 5
  Actual LD50: 350 mg/kg
[1]; Table 6
  Actual LD50: 350 mg/kg
[1]
  LD50: 350 mg/kg
  Toxicity: Moderately
[2]; 37°, modelling table
  Ksv (37°): 50302.85806
  ΔG(37°): −15.31
[2]; 296 K (Table 4)
  n: 0.535 ± 0.006
  ΔG^0: -3.0858 kcal/mol
[2]; [5]
  Ksv: 3.803 ± 0.107 10^4 M−1
[2]; 303 K (Table 4)
  n: 0.559 ± 0.004
  ΔG^0: -3.3726 kcal/mol
[2]; [6]
  Ksv: 4.110 ± 0.183 10^4 M−1
[2]; 310 K (Table 4)
  n: 0.567 ± 0.008
  r: 2.791
  ΔG^0: -3.6597 kcal/mol
[2]; [7]
  Ksv: 5.030 ± 0.145 10^4 M−1
[2]; Ka (37°), 37°, modelling table
  Kd: 2640 µM
[2]; Ka, 296 K (Table 4)
  Kd: 5280 µM
[2]; Ka, 303 K (Table 4)
  Kd: 3670 µM
[2]; modelling table
  Binding distance/r: 2.791
  Number of binding sites/n: 0.5672

## CNC(=O)O/N=C(\C[S+](C)[O-])C(C)(C)C (stereo not shown) [Thiofanox-sulfoxide]
[2]; 296 K
  ΔG^0: -4.1427 kcal/mol
[2]; 296 K, pH 7.4
  Ka (binding constant): (1.127 ± 0.100) × 10^3 M^−1
  Kq: 3.284 ± 0.040 10^12 M^−1s^−1
  Ksv: 3.284 ± 0.040 10^4 M^−1
  n (number of binding sites): 0.707 ± 0.009
[2]; 303 K
  ΔG^0: -4.5277 kcal/mol
[2]; 303 K, pH 7.4
  Ka (binding constant): (1.906 ± 0.103) × 10^3 M^−1
  Kq: 4.237 ± 0.067 10^12 M^−1s^−1
  Ksv: 4.237 ± 0.067 10^4 M^−1
  n (number of binding sites): 0.726 ± 0.005
[2]; 310 K
  ΔG^0: -4.913 kcal/mol
  R (binding distance): 1.702 nm
[2]; 310 K, pH 7.4
  Ka (binding constant): (2.861 ± 0.176) × 10^3 M^−1
  Kq: 5.339 ± 0.093 10^12 M^−1s^−1
  Ksv: 5.339 ± 0.093 10^4 M^−1
  n (number of binding sites): 0.746 ± 0.006
[2]
  ΔH^0: 12.144 kcal/mol
  ΔS^0: 230.219 J · mol^−1 · K^−1
[3]; 5:1 (Pesticide:HSA)
  α-helix contents: 50.523%
[3]; 10:1 (Pesticide:HSA)
  α-helix contents: 48.338%
